Active and inactive are the calls of the source. The rule behind the calls is not given here.
Experiments:
B16 [1] = test: Melanogenesis stimulation activity in mouse B16 cells at 2 to 10 uM; format: functional, cell-based
B16 [2] = test: Increase in melanin level in mouse B16 cells at 10 uM after 48 to 96 hrs; format: functional, cell-based
B16 [3] = test: Increase in tyrosinase activity in mouse B16 cells at 10 uM after 24 to 96 hrs; format: functional, cell-based
B16 [4] = test: Increase in tyrosinase expression in mouse B16 cells at 10 uM after 48 hrs; format: functional
B16 [5] = test: Increase in tyrosinase mRNA expression in mouse B16 cells at 10 uM after 12 hrs; format: functional
[6] = biological target: MAP kinase p38 (Mus musculus) (UniProt P47811+O08911+Q9WUI1+Q9Z1B7); test: Increase in p38 MAPK phosphorylation in mouse B16 cells at 4 to 8 hrs; format: cell-based
B16 [7] = test: Induction of tyrosinase mRNA expression in mouse B16 cells in presence of SB-203580; format: functional, cell-based

## O[C@H]1OC[C@H](Cc2ccc3c(c2)OCO3)[C@H]1Cc1ccc2c(c1)OCO2
B16 [1]
  Activity: Active
B16 [2]
  Activity: Active
B16 [3]
  Activity: Active
B16 [4]
  Fold change: 6.2
B16 [5]
  Fold change: 1.8
[6]
  Activity: Active
B16 [7]
  Activity: inactive
